For the test, the target named is T1, PhoR (PhoR-GFP) (Mycobacterium tuberculosis, UniProt P71815).
T1 sequence (P71815 181-485 limits assumed): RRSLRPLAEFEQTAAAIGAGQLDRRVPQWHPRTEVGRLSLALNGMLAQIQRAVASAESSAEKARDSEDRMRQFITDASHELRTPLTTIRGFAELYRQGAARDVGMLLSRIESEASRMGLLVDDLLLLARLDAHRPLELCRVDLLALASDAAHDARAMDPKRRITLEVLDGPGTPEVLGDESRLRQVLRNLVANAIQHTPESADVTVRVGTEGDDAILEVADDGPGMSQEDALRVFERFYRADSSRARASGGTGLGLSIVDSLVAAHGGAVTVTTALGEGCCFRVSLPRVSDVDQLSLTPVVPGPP
The test is described as follows: radioactive dot-blot autophosphorylation assay. The format is biochemical. The following applies: read-out: % inhibition at 10 μM.

*1 amine or outer side, *2 acyl side, *3 side chain or, on linkers, in order; H or OH if unused. Where a SMILES comes first, the peptide text is derived from it. Bridges are numbered along the chain shown (N, C = ends). Roman numbers before positions name the chains, in order. [ ]: non-standard residue; d: D form. Actinocin(9to1) = Cc1c2oc3c(C)ccc(C(=O)[*:1])c3nc-2c(C(=O)[*:2])c(N)c1=O; NMeV = CN[C@H](C(=O)O)C(C)C; Sar = CNCC(=O)O

What is called inhibition is the percentage by which the read-out fell short of the control.

Regarding `Cc1c2oc3c(C)ccc(C(=O)N[C@@H]4C(=O)N[C@H](C(C)C)C(=O)N5CCC[C@H]5C(=O)N(C)CC(=O)N(C)[C@@H](C(C)C)C(=O)O[C@@H]4C)c3nc-2c(C(=O)N[C@@H]2C(=O)N[C@H](C(C)C)C(=O)N3CCC[C@H]3C(=O)N(C)CC(=O)N(C)[C@@H](C(C)C)C(=O)O[C@@H]2C)c(N)c1=O` [Actinomycin D] (I: T[dV]P[Sar][NMeV] / II: T[dV]P[Sar][NMeV]; ester I:1-I:C, II:1-II:C; linker I:N-II:N via Actinocin(9to1)), the inhibition at 10 µM is more than 50%.
